IC50 data for twelve compounds are collected here from patent US9067905B2, “Sulphone compounds and methods of making and using same” (Zafgen, Inc., priority 2009, dated 2015).

The structures appear in SMILES notation. pIC50: −log10 of the molar value.

For this test, the target named is T1, recombinant human MetAP2 (Homo sapiens, UniProt P50579).
T1 construct: Flag; made in house; host or cells: Sf9 insect cells
T1 sequence (P50579 whole entry): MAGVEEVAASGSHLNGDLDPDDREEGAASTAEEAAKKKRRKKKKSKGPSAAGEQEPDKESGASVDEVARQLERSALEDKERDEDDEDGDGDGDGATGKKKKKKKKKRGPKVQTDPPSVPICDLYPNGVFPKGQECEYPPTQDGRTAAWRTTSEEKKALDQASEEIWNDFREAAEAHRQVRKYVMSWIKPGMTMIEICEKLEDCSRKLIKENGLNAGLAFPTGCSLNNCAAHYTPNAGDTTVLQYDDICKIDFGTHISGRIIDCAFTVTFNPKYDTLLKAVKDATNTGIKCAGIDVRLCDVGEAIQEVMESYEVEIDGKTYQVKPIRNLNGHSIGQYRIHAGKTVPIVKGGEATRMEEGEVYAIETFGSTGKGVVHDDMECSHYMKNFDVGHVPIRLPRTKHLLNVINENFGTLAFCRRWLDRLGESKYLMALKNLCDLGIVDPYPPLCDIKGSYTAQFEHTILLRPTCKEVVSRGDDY
The test is described as follows: Inhibition of recombinant human MetAP2 activity (Amplex red fluorescence assay). The following applies: manganese Flag-MetAP2, 0.75 mM Methionine-Alanine-Serine substrate, 30 minutes at 25° C., pH 7.5, 1% DMSO. It is filed as biochemical. On the procedure: Compounds are tested for their capacity to inhibit recombinant human MetAP2 activity using the following assay.
Human recombinant Flag-MetAP2 expressed in Sf9 cells followed by affinity purification and EDTA treatment to remove endogenous active site cation is dialysed against MnCl2 to produce the manganese enzyme used in the assay. The assay is carried out for 30 minutes at 25° C. in 50 mM HEPES buffer containing 100 mM NaCl, pH 7.5 the presence of 0.75 mM Methionine-Alanine-Serine (MAS) substrate and 50 μg/ml amino acid oxidase using a dilution of purified MetAP2 giving approximately 50,000 RFU control activity. Cleavage of the substrate by MetAP2 and oxidation of free methionine by amino acid oxidase is detected and quantified using fluorescence generated by Amplex red (10-acetyl-3,7-dihydroxyphenoxazine) in combination with horseradish peroxidase which detects H2O2 released during the oxidation step. The fluorescent signal is detected using a multiwell fluorimeter. Compounds are diluted in DMSO prior to addition to assay buffer, the final DMSO concentration in the assay being 1%.
The IC50 is defined as the concentration at which a given compound achieves 50% inhibition of control. IC50 values are calculated using the XLfit software package (version 2.0.5).
Broadly, the pIC50 is the negative decadic logarithm of the IC50, by convention in mol/L. Consider `CCc1ccc(CS(=O)(=O)c2ccccc2)c(C(=O)O)c1-c1ccn(C)n1` [6-Benzenesulphonylmethyl-3-ethyl-2-(1-methyl-1H-pyrazol-3-yl)-benzoic acid], for which the pIC50 is below 5.70. To `CCN(CC)CCOc1ccccc1S(=O)(=O)Cc1ccc(-c2ccoc2)c(OC)c1C(=O)O` [6-[2-(2-Diethylaminoethoxy)benzenesulphonylmethyl]-3-(furan-3-yl)-2-methoxybenzoic acid] belongs below 5.70; to `CCN(CC)CCNc1ccccc1S(=O)(=O)Cc1ccc(-c2ccoc2)c(OC)c1C(=O)O` [6-[2-(2-Diethylaminoethylamino)benzenesulphonylmethyl]-3-(furan-3-yl)-2-methoxybenzoic acid], 5.70 to 6.70. For `CCN(CC)CC1CCN1c1ccccc1S(=O)(=O)Cc1ccc(-c2ccoc2)c(OC)c1C(=O)O` (stereo not drawn) [6-[2-(2-Diethylaminomethylazetidin-1-yl)-benzenesulphonylmethyl]-3-(furan-3-yl)-2-methoxybenzoic acid], the pIC50 was below 5.70.

As to `CCN(CC)CCCc1ccccc1S(=O)(=O)Cc1ccc(-c2ccoc2)c(OC)c1C(=O)O` [6-[2-(3-Diethylaminopropyl)benzenesulphonylmethyl]-3-(furan-3-yl)-2-methoxybenzoic acid], the pIC50 was above 6.70. With `CCN(CC)CCCNc1ccccc1S(=O)(=O)Cc1ccc(-c2ccoc2)c(OC)c1C(=O)O` [6-[2-(3-Diethylaminopropylamino)benzenesulphonylmethyl]-3-(furan-3-yl)-2-methoxybenzoic acid], the pIC50 was above 6.70. To `COc1c(-c2ccoc2)ccc(CS(=O)(=NC#N)c2ccccc2)c1C(=O)O` (stereo not drawn) [6-[(N-cyano-S-phenylsulphonimidoyl)methyl]-3-(furan-3-yl)-2-methoxybenzoic acid] belongs above 6.70. As for `CCN(CC)C/C=C/c1ccccc1S(=O)(=O)Cc1ccc(-c2ccoc2)c(OC)c1C(=O)O` [(E)-6-((2-(3-(diethylamino)prop-1-enyl)benzenesulfonyl)methyl)-3-(furan-3-yl)-2-methoxybenzoic acid], the pIC50 is 5.70 to 6.70. For the compound `CCN(CC)C/C=C\c1cc(F)ccc1S(=O)(=O)Cc1ccc(-c2ccoc2)c(OCC#N)c1C(=O)O` [(Z)-2-Cyanomethoxy-6-((2-(3-(Diethylamino)prop-1-enyl)-4-fluorobenzenesulfonyl)methyl)-3-(furan-3-yl)benzoic acid], the pIC50 is above 6.70. To `COc1c(-c2ccoc2)ccc(CS(=O)(=O)c2ccccc2/C=C\CN2CCCCC2)c1C(=O)O` [(Z)-3-(Furan-3-yl)-2-methoxy-6-((2-(3-(piperidin-1-yl)prop-1-enyl)benzenesulfonyl)methyl)benzoic acid] belongs above 6.70. To `CCN(CC)C/C=C\c1cc(F)ccc1S(=O)(=O)Cc1ccc(-c2ccoc2)c(OC)c1C(=O)O` [(Z)-6-((2-(3-(Diethylamino)prop-1-enyl)-4-fluorophenylsulfonyl)methyl)-3-(furan-3-yl)-2-methoxybenzoic acid] belongs above 6.70; to `CCN(CC)C/C=C\c1ccccc1S(=O)(=O)Cc1ccc(-c2ccoc2)c(OC)c1C(=O)O` [(Z)-6-((2-(3-(Diethylamino)prop-1-enyl)benzenesulfonyl)methyl)-3-(furan-3-yl)-2-methoxybenzoic acid], above 6.70.
